Test results as given in publication PMC7915588, “Polyphyllin D Shows Anticancer Effect through a Selective Inhibition of Src Homology Region 2-Containing Protein Tyrosine Phosphatase-2 (SHP2)” (Molecules, 2021).

Legend:
[1] = target: T1, SHP2 (Homo sapiens, UniProt Q06124)
T1 construct: gene PTPN11
T1 sequence (Q06124 1-526): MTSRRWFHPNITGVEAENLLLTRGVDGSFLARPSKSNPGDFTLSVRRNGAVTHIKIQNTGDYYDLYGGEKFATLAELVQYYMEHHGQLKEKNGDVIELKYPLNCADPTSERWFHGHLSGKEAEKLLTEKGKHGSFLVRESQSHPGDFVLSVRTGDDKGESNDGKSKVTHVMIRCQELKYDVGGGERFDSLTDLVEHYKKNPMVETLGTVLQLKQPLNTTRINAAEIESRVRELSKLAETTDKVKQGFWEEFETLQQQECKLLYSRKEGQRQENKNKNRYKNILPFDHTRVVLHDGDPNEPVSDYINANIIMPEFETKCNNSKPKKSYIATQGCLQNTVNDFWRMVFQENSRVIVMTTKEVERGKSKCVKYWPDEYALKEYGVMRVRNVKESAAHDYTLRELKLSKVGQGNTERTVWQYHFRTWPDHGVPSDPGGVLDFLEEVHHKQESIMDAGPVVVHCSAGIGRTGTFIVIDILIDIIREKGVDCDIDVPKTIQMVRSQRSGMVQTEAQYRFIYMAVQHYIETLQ

[2] = target: T1, SHP2; assay: DiFMUP fluorogenic phosphatase assay at […]; type: biochemical

| Structure (SMILES) | Km [1] | DiFMUP fluorogenic phosphatase assay at 20 μM [2] |
| --- | --- | --- |
| Cc1cc(=O)oc2c(F)c(OP(=O)(O)O)c(F)cc12 [DiFMUP] | 70 µM | – |
| CC1(C)CC[C@]2(C(=O)O)CC[C@]3(C)C(=CC[C@@H]4[C@@]5(C)CC[C@H](O)C(C)(C)[C@@H]5CC[C@]43C)[C@@H]2C1 [oleanolic acid] | – | Echinocystic and oleanolic acids selectively inhibited SHP1 and SHP2 over the other PTPs tested |
